From patent US12344603B2 (Genentech, Inc., priority 2020, dated 2025)
Structures can show the parent of a compound that is named as a salt.

Target: IRE1α (Homo sapiens (Human), UniProt O75460, D688N)
Test: IRE1α TR-FRET competition binding assay (IRE1α HTRF)
Conditions: TR-FRET competition binding to kinase domain of IRE1α
In short: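 Competition of compounds against an Alexa fluor 647 ATP-site probe (2 nM final) for the His-tagged kinase domain (0.25 nM final), detected via 2 nM Eu anti-His antibody by TR-FRET, 665 and 615 nm emission. Protein–antibody premix 1 h, 4° C; reaction 1 h, room temperature, pH 7.5 HEPES buffer.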

Chain of IRE1α (O75460 547-977 D688N): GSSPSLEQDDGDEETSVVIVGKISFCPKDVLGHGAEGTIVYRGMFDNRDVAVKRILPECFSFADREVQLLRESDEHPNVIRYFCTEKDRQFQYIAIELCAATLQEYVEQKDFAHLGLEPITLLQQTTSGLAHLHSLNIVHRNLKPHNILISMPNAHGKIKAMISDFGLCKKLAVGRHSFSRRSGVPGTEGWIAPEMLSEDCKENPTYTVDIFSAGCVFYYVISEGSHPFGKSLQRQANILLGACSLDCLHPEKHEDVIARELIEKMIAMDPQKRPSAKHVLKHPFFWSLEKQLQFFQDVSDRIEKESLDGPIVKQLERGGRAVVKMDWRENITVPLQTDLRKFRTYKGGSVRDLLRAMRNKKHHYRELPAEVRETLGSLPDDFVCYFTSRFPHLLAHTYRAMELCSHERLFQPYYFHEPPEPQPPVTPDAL

IC50 [nM] | SMILES
0.08 | CC(C)n1c(=O)c(-c2c(F)cc(NS(=O)(=O)Cc3ccc(F)cc3)cc2F)cc2cnc(N[C@H]3CC[C@H](N(C)C)CC3)nc21 [Compound 129, N-(4-(2-(((1r,4r)-4-(Dimethylamino)cyclohexyl)amino)-8-isopropyl-7-oxo-7,8-dihydropyrido[2,3-d]pyrimidin-6-yl)-3,5-difluorophenyl)-1-(4-fluorophenyl)methanesulfonamide hydrochloride]
0.2 | CC(C)n1c(=O)c(-c2ccc(NS(=O)(=O)CC3CCC4C(C3)C4(F)F)c(F)c2)nc2cnc(N[C@H]3CC[C@H](N(C)C)CC3)nc21 (mixture of isomers) [Example 273, 1-(7,7-Difluoronorcaran-3-yl)-N-[4-[2-[[(1RS)-4-(dimethylamino)cyclohexyl]amino]-8-isopropyl-7-oxo-pteridin-6-yl]-2-fluoro-phenyl]methanesulfonamide]
0.35 | CC(C)n1c(=O)c(-c2c(F)cc(NS(=O)(=O)CCC(F)(F)F)c(F)c2F)nc2cnc(N[C@H]3CC[C@H](N(C)C)CC3)nc21 [Compound 172, N-(4-(2-(((1r,4r)-4-(Dimethylamino)cyclohexyl)amino)-8-isopropyl-7-oxo-7,8-dihydropteridin-6-yl)-2,3,5-trifluorophenyl)-3,3,3-trifluoropropane-1-sulfonamide hydrochloride]
2.7 | CC(C)n1c(=O)c(-c2cc(F)c(NS(=O)(=O)Cc3ccccc3)c(F)c2F)cc2cnc(N[C@H]3CC[C@H](N(C)C)CC3)nc21 [Compound 24, N-(4-(2-(((1r,4r)-4-(Dimethylamino)cyclohexyl)amino)-8-isopropyl-7-oxo-7,8-dihydropyrido[2,3-d]pyrimidin-6-yl)-2,3,6-trifluorophenyl)-1-phenylmethanesulfonamide]
0.21 | CCn1c(=O)c(-c2cc(F)c(NS(=O)(=O)Cc3ccccc3)c(F)c2F)cc2cnc(N[C@@H]3CNC[C@@H](F)C3)nc21 [Compound 15, N-(4-(8-Ethyl-2-(((3S,5S)-5-fluoropiperidin-3-yl)amino)-7-oxo-7,8-dihydropyrido[2,3-d]pyrimidin-6-yl)-2,3,6-trifluorophenyl)-1-phenylmethanesulfonamide]
5.8 | CC(C)n1c(=O)c(-c2cccc(NS(=O)(=O)Cc3ccccc3)c2F)cc2cnc(N[C@H]3CCCNC3)nc21 [Compound 16, (S)—N-(2-Fluoro-3-(8-isopropyl-7-oxo-2-(piperidin-3-ylamino)-7,8-dihydropyrido[2,3-d]pyrimidin-6-yl)phenyl)-1-phenylmethanesulfonamide]
0.16 | COCCN(C)C1CCC(Nc2ncc3cc(-c4cc(F)c(NS(=O)(=O)Cc5ccccc5)c(F)c4F)c(=O)n(C(C)C)c3n2)CC1 (single isomer, unassigned) [Compound 102A, 1-Phenyl-N-(2,3,6-trifluoro-4-(8-isopropyl-2-((4-((2-methoxyethyl)(methyl)amino)cyclohexyl)amino)-7-oxo-7,8-dihydropyrido[2,3-d]pyrimidin-6-yl)phenyl)methanesulfonamide]
0.2 | CC(C)n1c(=O)c(-c2ccc(NS(=O)(=O)CCCC3CC3)c(F)c2)cc2cnc(N[C@H]3CC[C@H](N(C)C)CC3)nc21 [Example 232, 3-cyclopropyl-N-(4-(2-(((1r,4r)-4-(dimethyl-amino)cyclohexyl)-amino)-8-isopropyl-7-oxo-7,8-dihydropyrido-[2,3-d]pyrimidin-6-yl)-2-fluorophenyl)propane-1-sulfonamide]
0.11 | COc1cccc(CS(=O)(=O)Nc2c(F)cc(-c3cc4cnc(N[C@@H]5CNC[C@@H](F)C5)nc4n(C(C)C)c3=O)c(F)c2F)c1 [Compound 31, 1-(3-Methoxyphenyl)-N-(2,3,6-trifluoro-4-(2-(((3S,5S)-5-fluoropiperidin-3-yl)amino)-8-isopropyl-7-oxo-7,8-dihydropyrido[2,3-d]pyrimidin-6-yl)phenyl)methanesulfonamide hydrochloride]
0.17 | CC(C)n1c(=O)c(-c2cc(F)c(NS(=O)(=O)Cc3ccccc3)c(F)c2F)nc2cnc(N[C@@H]3CNC[C@@H](F)C3)nc21 [Compound 185, 1-Phenyl-N-(2,3,6-trifluoro-4-(2-(((3S,5S)-5-fluoropiperidin-3-yl)amino)-8-isopropyl-7-oxo-7,8-dihydropteridin-6-yl)phenyl)methanesulfonamide]
0.25 | CC(C)n1c(=O)c(-c2ccc(NS(=O)(=O)Cc3ccc(F)cc3)c(F)c2)nc2cnc(N[C@H]3CC[C@H](N(C)C)CC3)nc21 [Compound 184, N-(4-(2-(((1r,4r)-4-(dimethylamino)cyclohexyl)amino)-8-isopropyl-7-oxo-7,8-dihydropteridin-6-yl)-2-fluorophenyl)-1-(4-fluorophenyl)methanesulfonamide]
0.24 | CC(C)n1c(=O)c(-c2ccc(NS(=O)(=O)Cc3ccccc3)c(F)c2)nc2cnc(N[C@@H]3CNC[C@H](CF)C3)nc21 [Compound 65, N-(2-Fluoro-4-(2-(((3S,5R)-5-(fluoromethyl)piperidin-3-yl)amino)-8-isopropyl-7-oxo-7,8-dihydropteridin-6-yl)phenyl)-1-phenylmethanesulfonamide]
0.2 | CC(C)n1c(=O)c(-c2ccc(NS(=O)(=O)CC3CCCCC3(F)F)c(F)c2)nc2cnc(N[C@H]3CC[C@H](N(C)C)CC3)nc21 (mixture of isomers) [Example 272, 1-(2,2-Difluorocyclohexyl)-N-[4-[2-[[4-(dimethylamino)cyclohexyl]amino]-8-isopropyl-7-oxo-pteridin-6-yl]-2-fluoro-phenyl]methanesulfonamide]
11 | CC(C)n1c(=O)c(-c2ccc(F)c(NS(=O)(=O)Cc3ccccc3)c2)cc2cnc(N[C@H]3CCCNC3)nc21 [Compound 17, (S)—N-(2-Fluoro-5-(8-isopropyl-7-oxo-2-(piperidin-3-ylamino)-7,8-dihydropyrido[2,3-d]pyrimidin-6-yl)phenyl)-1-phenylmethanesulfonamide hydrochloride]
0.41 | O=c1c(-c2ccc(NS(=O)(=O)Cc3ccccc3)c(F)c2F)cc2cnc(N[C@@H]3CNC[C@@H](F)C3)nc2n1C1CCCC1 [Compound 18, N-(4-(8-Cyclopentyl-2-(((3S,5S)-5-fluoropiperidin-3-yl)amino)-7-oxo-7,8-dihydropyrido[2,3-d]pyrimidin-6-yl)-2,3-difluorophenyl)-1-phenylmethanesulfonamide]
66 | COCCN(C)C1CCC(Nc2ncc3cc(-c4cc(F)c(NS(=O)(=O)Cc5ccccc5)c(F)c4F)c(=O)n(C(C)C)c3n2)CC1 (single isomer, unassigned) [Compound 102B, 1-Phenyl-N-(2,3,6-trifluoro-4-(8-isopropyl-2-((4-((2-methoxyethyl)(methyl)amino)cyclohexyl)amino)-7-oxo-7,8-dihydropyrido[2,3-d]pyrimidin-6-yl)phenyl)methanesulfonamide]
0.25 | CC(C)n1c(=O)c(-c2ccc(NS(=O)(=O)c3cccnc3)c(F)c2)nc2cnc(N[C@H]3CC[C@H](N(C)C)CC3)nc21 [Compound 191, N-(4-(2-(((1r,4r)-4-(Dimethylamino)cyclohexyl)amino)-8-isopropyl-7-oxo-7,8-dihydropteridin-6-yl)-2-fluorophenyl)pyridine-3-sulfonamide hydrochloride]
0.71 | O=c1c(-c2ccc(NS(=O)(=O)Cc3ccccc3)c(F)c2F)cc2cnc(N[C@@H]3CNC[C@@H](F)C3)nc2n1CCF [Compound 53, N-(2,3-Difluoro-4-(8-(2-fluoroethyl)-2-(((3S,5S)-5-fluoropiperidin-3-yl)amino)-7-oxo-7,8-dihydropyrido[2,3-d]pyrimidin-6-yl)phenyl)-1-phenylmethanesulfonamide]
0.21 | CC(C)n1c(=O)c(-c2cc(F)c(NS(=O)(=O)Cc3ccc(C#N)cc3)c(F)c2F)cc2cnc(N[C@@H]3CNC[C@@H](F)C3)nc21 [Compound 29, 1-(4-Cyanophenyl)-N-(2,3,6-trifluoro-4-(2-(((3S,5S)-5-fluoropiperidin-3-yl)amino)-8-isopropyl-7-oxo-7,8-dihydropyrido[2,3-d]pyrimidin-6-yl)phenyl)methanesulfonamide]
0.19 | CC(C)n1c(=O)c(-c2cc(F)c(NS(=O)(=O)Cc3ccc(C(F)F)cc3)c(F)c2)cc2cnc(N[C@H]3CC[C@H](N(C)C)CC3)nc21 [Compound 125, 1-(4-(Difluoromethyl)phenyl)-N-(4-(2-(((1r,4r)-4-(dimethylamino)cyclohexyl)amino)-8-isopropyl-7-oxo-7,8-dihydropyrido[2,3-d]pyrimidin-6-yl)-2,6-difluorophenyl)methanesulfonamide]
0.18 | CC(C)n1c(=O)c(-c2ccc(NS(=O)(=O)CC3CCCCC3)nc2)cc2cnc(N[C@H]3CC[C@H](N(C)C)CC3)nc21 [Compound 152, 1-Cyclohexyl-N-(5-(2-(((1r,4r)-4-(dimethylamino)cyclohexyl)amino)-8-isopropyl-7-oxo-7,8-dihydropyrido[2,3-d]pyrimidin-6-yl)pyridin-2-yl)methanesulfonamide]
0.19 | CC(C)n1c(=O)c(-c2ccc(NS(=O)(=O)CCC(F)(F)F)c(F)c2)cc2cnc(N[C@H]3CC[C@H](N(C)CC4CCO4)CC3)nc21 (stereo partly drawn) [Compound 209, 3,3,3-Trifluoro-N-(2-fluoro-4-(8-isopropyl-2-(((1,4-trans)-4-(methyl(oxetan-2-ylmethyl)amino)cyclohexyl)amino)-7-oxo-7,8-dihydropyrido[2,3-d]pyrimidin-6-yl)phenyl)propane-1-sulfonamide]

Same assay, conditions: TR-FRET competition binding to kinase domain of IRE1α; hydrochloride

IC50 [nM] | SMILES
0.13 | CC(C)n1c(=O)c(-c2ccc(NS(=O)(=O)CCC(F)(F)F)c(F)c2)cc2cnc(NC3CCC(N(C)C)C(F)C3)nc21 (racemic) [Compound 154, N-(4-(2-((4-(Dimethylamino)-3-fluorocyclohexyl)amino)-8-isopropyl-7-oxo-7,8-dihydropyrido[2,3-d]pyrimidin-6-yl)-2-fluorophenyl)-3,3,3-trifluoropropane-1-sulfonamide hydrochloride]
